Data from article PMC12091851, “Replacing a Cereblon Ligand by a DDB1 and CUL4 Associated Factor 11 (DCAF11) Recruiter Converts a Selective Histone Deacetylase 6 PROTAC into a Pan‐Degrader” (Chemmedchem, 2025).
Read-outs that look alike come from different tables or passages of the source.

What was measured:
MM.1S cells [1] = assay: CellTiter-Glo cell viability assay; assay type: cell-based, human; settings: 72 h; for EC50: Homo sapiens, MM1.S
Method: For this purpose, the dilution series were prepared in 200-fold concentration in DMSO and further diluted to 10-fold concentration in medium. The final DMSO concentration was 0.5%. The toxicity of compounds was determined after 72 h using the CellTiter-Glo 2.0 Cell Viability Assay (Promega, Madison, WI, USA, #G9242) according to the manufacturer´s protocol. Subsequently, the luminescence was measured using a Tecan Spark (Tecan Group AG, Maennedorf, Swiss) and the half maximal effective concentration (EC50) was determined by plotting dose response curves and nonlinear regression with GraphPad Prism (GraphPad Software, San Diego, CA, USA). […] Cellular HDAC Inhibition Assay […] with minor changes. […] The DMSO-stock solutions were used to perform a serial dilution in DMSO. […] 10 µL of the substrate solution was added and incubated for 3 h under cell culture conditions. […] S8

HDAC1 = HDAC1 (Homo sapiens, UniProt Q13547); assay: Simple Western immunoassay, HDAC1 levels in MM.1S cell lysates; assay type: cell-based; design: endogenous in cells; host or cells: MM.1S; settings: MM.1S cells, 10 μM, 24 h
Sequence of HDAC1 (Q13547 whole entry): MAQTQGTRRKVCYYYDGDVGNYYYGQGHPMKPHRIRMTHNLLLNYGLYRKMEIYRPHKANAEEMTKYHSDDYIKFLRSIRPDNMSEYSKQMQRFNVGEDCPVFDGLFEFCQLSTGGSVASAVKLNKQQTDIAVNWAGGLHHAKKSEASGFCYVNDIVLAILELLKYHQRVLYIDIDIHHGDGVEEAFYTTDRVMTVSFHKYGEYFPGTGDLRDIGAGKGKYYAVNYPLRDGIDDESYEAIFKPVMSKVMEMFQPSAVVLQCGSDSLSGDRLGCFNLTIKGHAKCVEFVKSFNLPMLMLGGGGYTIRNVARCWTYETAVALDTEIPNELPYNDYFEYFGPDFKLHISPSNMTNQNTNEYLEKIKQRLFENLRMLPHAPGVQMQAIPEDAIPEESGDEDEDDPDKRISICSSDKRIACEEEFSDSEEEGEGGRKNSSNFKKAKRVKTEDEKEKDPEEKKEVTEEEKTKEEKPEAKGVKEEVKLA
Method: Figure 3 Initial degradation screening of HDAC1 and 6 by DCAF11‐recruiting PROTACs by Simple Western™ immunoassay analysis of MM.1S cell lysates. MM.1S cells were treated with the indicated compound (10 μM) or vehicle (DMSO) for 24 h. […] Bottom: Representative images from a total of n=3 biological replicates, labeled with spacer type; w/o: without spacer.
2. Biological Experiments
No unexpected or unusually high safety hazards were encountered.
The human multiple myeloma cell line MM.1S (CRL-2974) was obtained from American Type Culture Collection (ATCC, Manassas, VA, USA). The semi-adherent cells were cultivated in RPMI 1640 medium (Catalog#21875-034, Gibco, ThermoFisher Scientific Inc., Waltham, MA, USA) supplemented with 10% FBS (PAN Biotech GmbH; Aidenbach, Germany), 100 IU/mL penicil lin, 0.1 mg/mL streptomycin (PAN Biotech GmbH) and 1 mM sodium pyruvate (ThermoFisher Scientific Inc.). […]
(PAN Biotech GmbH). All cells were cultured at 37 °C in a 5% CO2 atmosphere. Incubation times, as part of assay protocols, were performed under these conditions as well. The semi-adherent MM.1S were detached mechanically by using a cell scraper and the adhered […] were trypsinased by trypsin/EDTA (0.05%/0.02% in DPBS, PAN Biotech GmbH) whereas the U-87MG were detached by […]
2.2. Simple Western™ Immunoassay
For the cell lysates, MM.1S (0.5 × 10^6 cells/mL) or U-87MG (0.18 × 10^6 cells/mL) cells were seeded and incubated with the indicated concentration of compound or vehicle (DMSO) for the given time. The adherent cells were cultured for 24 h under cell culture conditions for attachment before treatment. Cell lysis was performed with Cell Extraction Buffer (10 mM Tris, pH 7.4, 100 mM NaCl, 1 mM EDTA, […]
SDS, 0.5% deoxycholate; Catalog# FNN0011, Thermo Fisher Scientific Inc., Waltham, MA, USA) with addition of Halt Protease Inhibitor Cocktail (100×) (Catalog# 78429, Life Technologies GmbH, Carlsbad, CA, USA) and phenylmethanesulfonyl fluoride (Catalog# 10837091001, Sigma-Aldrich, St.
Louis, MO, USA) according to manufacturer´s instructions. Protein content was determined by Pierce™ BCA Protein Assay Kit (Catalog# 23225, Thermo Fisher Scientific Inc.) according to manufacturer´s guidelines. Cell lysates were diluted to a final concentration of 1 mg/mL and denatured according to manufacturer’s guidelines. Anti-HDAC1 (Catalog# 5356S, Cell Signaling Technology, Denver, MA, USA), anti-HDAC6 (Catalog#7558S, Cell Signaling Technology) and anti-GAPDH (Catalog# 2118S, […]
Fluorescence Separation 8x25 Capillary Cartridges (Catalog# SM-FL004-1, Protein Simple, Bio-Techne, Minneapolis, MN, USA) were used for separation and the Anti-Mouse Detection Module (Catalog# DM-002, Protein Simple) was used for detection with addition of 20x Anti-Rabbit HRP […]
Conjugate (Catalog# 043-426, Protein Simple) according to manufacturer´s instructions. The assay was performed with the Jess Simple Western System (catalog# 004-650, Protein Simple), according to manufacturer´s settings. Evaluation and quantification was performed with the compass software (6.2.0, Protein Simple). GraphPad Prism (GraphPad Software, San Diego, CA, USA) was used for normalization, statistical analysis and bar graph creation. Significance testing was performed with a one-way analysis of variance (ANOVA). […]
of each mean compared to a reference mean value. […]
AMC (Catalog# 233691-67-3, BLD pharma) was prepared with and without IGEPAL CA-630 (0.5%, Catalog# J61055, Alfa Aesar). 10 µL of the substrate solution was added and incubated for 3 h under cell culture conditions. The reaction was stopped with 100 µL of stop solution (50 mM Tris-HCl, […]
Trypsin) and incubated for 1.5 h under cell culture conditions. The fluorescence signal was measured by a FLUOstar OPTIMA microplate reader (BMG labtech, Ortenburg, Germany) at excitation of λ = 355 nm and emission of λ = 460 nm. All Compounds were tested in two independent experiments in duplicates and IC50 was determined by nonlinear regression with GraphPad Prim.

MDA-MB-231 cells = assay: Clonogenic growth assay; assay type: cell-based, human; settings: 10 μM for 48 h, nine days of growth
Method: Figure 9 Clonogenic growth assay of DCAF11‐recruiting PROTACs. MDA‐MB‐231 cells were treated with 10 μM of the respective compound or vehicle (DMSO) for 48 hours. (A) Representative images of crystal violet stained colonies after nine days of growth. (B) Quantification of counted colonies, presented as mean ± standard deviation of three biological replicates, each performed in triplicates. Significance of quantification compared to vehicle: ns=p≥0.05; **=p≤0.01 and ***=p≤0.001. […]
Subsequently, cells were harvested and
plated in 6-well plates at a density of 750 cells per well in triplicates. The cell culture medium was
changed after five days. Nine days after plating, the colonies were carefully washed with 500 µL DPBS
and stained with 500 µL crystal violet solution (0.5% in methanol). After 30 minutes of incubation at
room temperature, the wells were gently rinsed with deionized water. After counting the formed
colonies, GraphPad Prism (GraphPad Software) was used for bar graph creation. Significance testing
was performed with a one-way analysis of variance (ANOVA). Dunnett’s post-hoc test was employed
to obtain significance levels of each mean compared to a reference mean value.

MM.1S cells [2] = assay: Cell cycle analysis by PI staining and flow cytometry; assay type: cell-based, human; settings: 10 μM, 48 h
Method: GraphPad Prism (GraphPad Software). […]
Biotech), resuspended in 1 mL EtOH/D PBS (7/3 v/v), and fixed for 30 min at 4 °C. The samples were rehydrated with DPBS and treated with 5 µg /mL RNAse ( Catalog# EN0531 , ThermoFisher Scientific Inc.) for 15 min at room temperature. The staining was performed with 3 µM propidium iodide (in DPBS) for 15 min at room temperature and analyzed by flow cytometry ( Guava easyCyteTM, Luminex, […]
Lakes, NJ, USA), using the Watson Pragmatic algorithm.[6] GraphPad Prism (GraphPad Software) was used for normalization, statistical analysis, and bar graph creation. Significance testing was performed with a one-way analysis of variance (ANOVA). Dunnett’s post-hoc test was employed to obtain […]
Final DMSO concentration was 0.1%.
Staining was performed with
Fluorescence was measured by flow cytometry (Guava® easyCyteTM, Luminex, Austin, Texas). GraphPad Prism (GraphPad Software) was used for normalization, statistical analysis, and bar graph creation. Significance testing was performed with a one-way analysis of variance (ANOVA).
Subsequently, cells were harvested and […]
After 30 minutes of incubation at […]
Dunnett’s post-hoc test was employed

[3] = MM.1S cells, n.e.: no effect (≤25% effect up to 50 μM), read-out: EC50 antiproliferative activity
[4] = MM.1S cells, n.e.: no effect (≤25% effect up to 50 μM)

| Compound | EC50 (MM.1S cells [1]; [3]) | also measured |
| --- | --- | --- |
| O=C(CCCCCCNC(=O)c1ccc(NC(=O)c2ccc(N(C(=O)CCl)C(C(=O)NCc3ccccc3)c3ccc(Cl)c(Cl)c3)cc2)cc1)NO (stereo not shown) [Compound 1a] | 34 ± 6 µM | EC50 antiproliferative activity (MM.1S cells [1]; [4]): diminished antiproliferative activity |
| O=C(CCCCCCNC(=O)c1ccc(NC(=O)CN(C(=O)CCl)C(C(=O)NCc2ccccc2)c2ccc(Cl)c(Cl)c2)cc1)NO (stereo not shown) [Compound 1f] | 19 ± 3 µM |  |
| O=C(CCCCCCNC(=O)c1ccc(NC(=O)CCCCCN(C(=O)CCl)C(C(=O)NCc2ccccc2)c2ccc(Cl)c(Cl)c2)cc1)NO (stereo not shown) [Compound 1h] | 18 ± 7 µM | reduction of HDAC1 levels (HDAC1): did not reduce HDAC1 levels |
| O=C(CCCCCCNC(=O)c1cnc(N(c2ccccc2)c2ccccc2)nc1)NO [Ricolinostat, ricolinostat, reference compound] |  | reduction of colonies (clonogenic growth) (MDA-MB-231 cells): less pronounced and not significant; effect on cell cycle phases (MM.1S cells [2]): stronger effects on the different phases of the cell cycle; EC50 (MM.1S cells [1]; read-out: EC50 MM.1S): 3 ± 0.6 µM |

Further lines, with some results ahead:

| EC50 (MM.1S cells [1]; [3]) | Compound | also measured |
| --- | --- | --- |
| 18 ± 3 µM | O=C(CCCCCCNC(=O)c1ccc(NC(=O)[C@H]2CC[C@H](CN(C(=O)CCl)C(C(=O)NCc3ccccc3)c3ccc(Cl)c(Cl)c3)CC2)cc1)NO (stereo partly shown) [Compound 1b] | EC50 antiproliferative activity (MM.1S cells [1]; [4]): diminished antiproliferative activity |
| 6.2 ± 0.7 µM | O=C(CCCCCCNC(=O)c1ccc(NC(=O)CCOCCOCCN(C(=O)CCl)C(C(=O)NCc2ccccc2)c2ccc(Cl)c(Cl)c2)cc1)NO (stereo not shown) [Compound 1c] |  |
| 6.9 ± 0.6 µM | O=C(CCCCCCNC(=O)c1ccc(NC(=O)CCOCCOCCOCCN(C(=O)CCl)C(C(=O)NCc2ccccc2)c2ccc(Cl)c(Cl)c2)cc1)NO (stereo not shown) [Compound 1d] |  |
| 7.3 ± 0.5 µM | O=C(CCCCCCNC(=O)c1ccc(NC(=O)CCOCCOCCOCCOCCN(C(=O)CCl)C(C(=O)NCc2ccccc2)c2ccc(Cl)c(Cl)c2)cc1)NO (stereo not shown) [Compound 1e] | reduction of HDAC1 levels (HDAC1): 51% |
| 16 ± 2 µM | O=C(CCCCCCNC(=O)c1ccc(NC(=O)CCCN(C(=O)CCl)C(C(=O)NCc2ccccc2)c2ccc(Cl)c(Cl)c2)cc1)NO (stereo not shown) [Compound 1g] |  |
| 12 ± 2 µM | O=C(CCCCCCNC(=O)c1ccc(NC(=O)CCCCCCCN(C(=O)CCl)C(C(=O)NCc2ccccc2)c2ccc(Cl)c(Cl)c2)cc1)NO (stereo not shown) [Compound 1i] |  |
